Results published in patent publication US20130266663A1, “SOX9 INHIBITORS” (priority 2010, published 2013).

Columns and labels:
Assay type in all cases: cell-based, rat
SOX9 = SOX9 luciferase reporter assay in transfected astrocytes; conditions: for inhibition of SOX9 activity (luciferase assay): 24 h; for luciferase reporter activity (SOX9 activity) / concentration at which the decrease in luciferase reporter activity is optimized / maximal: cultured rat astrocytes; for luciferase reporter activity (SOX9 activity) / reduction of Sox9 activity as indicated by luciferase expression / concentration at which the decrease in luciferase reporter activity is optimized / maximal: 24 h treatment; for luciferase reporter activity (SOX9 activity): various concentrations (FIG. 5); for reduction of Sox9 activity as indicated by luciferase expression: concentration not stated (FIG. 5)
Source text: Cultures early after plating bear characteristics of immature and reactive astroctyes associated with acute damage. In this assay, primary astrocytes are transfected with a SOX9 reporter construct that consists of 4 repeats of the SOX9 binding site coupled to the mouse Col2a1 minimal promoter cloned upstream of a luciferase gene in the plasmid pGL4, as previously described in WO 2008/049226. After normalization for transfection efficiency, SOX9 activity can be monitored in transfected astrocytes by luciferase activity. Cells transfected with the SOX9 reporter construct were cultured in the presence and absence of potential inhibitors for 24 hours at which time the cells were lysed and luciferase levels measured. Compounds that reduced the levels of luciferase activity relative to control wells were considered as positive “hits”. In a secondary screen, false positives that cause a reduction in luciferase activity due to effects on cell viability, were eliminated using a cell viability assay (CellTiter-Flour—Promega). Subsequent to secondary screening, the “hits” were evaluated for their affect on SOX9 target gene expression by Q-PCR studies in primary astrocytes.
The utility of calmodulin antagonists (inhibitor) to decrease SOX9 target gene expression was evaluated in cultured rat astrocytes transfected with pGL4.1 4×48 Col2a1 prepared as described in Example 1. This plasmid contains 4-48 bp SOX9-binding sites from the Col2A1 enhancer which promote luciferase reporter gene expression in cells where SOX9 is active i.e. in the nucleus. The day after transfection, cells were treated for 24 h with inhibitor in concentrations as described below and in FIG. 5 before the luciferase assay was performed.
In this example, the potential of compounds that modulate calcium channels to modulate SOX9 activity is tested. The compounds were evaluated in cultured rat astrocytes transfected with pGL4.1 4×48 Col2a1. The day after transfection, cells were treated for 24 h with selected inhibitors before the luciferase assay was performed.
Antagonists to TRPV4 cation channel were tested to determine their ability to decrease the activity of SOX9 in astrocytes. The effect of TRPV4 antagonists on SOX9 function was evaluated in cultured rat astrocytes transfected with pGL4.1 4×48 Col2a1. The day after transfection, cells were treated for 24 h with 2-APB (100 μM) or ruthenium red (10 μM) before the luciferase assay was performed. […] With respect to SOX9 target genes, Q-PCR analysis of aged primary astrocyte cultures was performed to determine the impact of the TRPV4 antagonists on SOX9. […] Collagen IV is a significant scarring extracellular matrix produced by astrocytes and contributing to the inhibitory properties of the glial scar.

SOX9 target genes = assay: Q-PCR of SOX9 target gene expression in aged primary astrocyte cultures; design: reduction of XT-1 expression / reduction of HAPLN1 expression / reduction of aggrecan expression / reduction of Col2a expression / reduction of Col4a expression: concentration or dose not given beside the values
Source text: Another approach to modulating the capacity of calmodulin to transport SOX9 into the nucleus is via competitive inhibition of calmodulin binding. To that effect, a novel peptide (SOX-CAL) was generated to specifically block the calmodulin SOX9 binding site. The SOX-CAL peptide sequence, […] (SEQ ID NO.8), corresponds with the calmodulin binding sequence in SOX9. To ensure the peptide's entry into the cell, it was synthesized fused to the protein transduction domain of the HIV-1 Tat protein. […] This analysis was performed in contrast to the control FLAG-TAT peptide.
Antagonists to TRPV4 cation channel were tested to determine their ability to decrease the activity of SOX9 in astrocytes. The effect of TRPV4 antagonists on SOX9 function was evaluated in cultured rat astrocytes transfected with pGL4.1 4×48 Col2a1. The day after transfection, cells were treated for 24 h with 2-APB (100 μM) or ruthenium red (10 μM) before the luciferase assay was performed. The broad-spectrum transient receptor potential (TRP) channel antagonist 2-APB inhibited SOX9 activity by ˜70%, while the vanniloid subfamily-specific TRP antagonist ruthenium red inhibited SOX9 activity by ˜25%. With respect to SOX9 target genes, Q-PCR analysis of aged primary astrocyte cultures was performed to determine the impact of the TRPV4 antagonists on SOX9. Treatment with ruthenium red specifically reduces aggrecan and Col4a expression by 40% and 50%, respectively (FIG. 6B), while 2-APB reduces XT-1, HAPLN1, aggrecan, Col2a, and Col4a by 50%, 70%, 80%, 50%, and 60% respectively (FIG. 6B, C), in rat primary astrocytes after a 48 hour exposure (n=3). […] Based on the role that the TRP channels serve in modulating calcium levels, and therefore calmodulin activity, the effect of the TRP channel blockers on SOX9 activity appears to be indirect.

Collagen IV = assay: Western blotting of astrocyte culture protein extract probed with anti-collagen IV; conditions: Cal-TAT treated vs control cultures
[1] = rat primary astrocytes, 48 hour exposure, n=3
[2] = primary astrocyte cultures, in contrast to control FLAG-TAT peptide (FIG. 7C)

## NCCOB(c1ccccc1)c1ccccc1 [2-APB]
SOX9; 100 μM
  inhibition of SOX9 activity (luciferase assay): ~70%
SOX9
  luciferase reporter activity (SOX9 activity): significantly reduce luciferase production
SOX9 target genes; [1]
  reduction of Col2a expression: 50%
  reduction of Col4a expression: 60%
  reduction of HAPLN1 expression: 70%
  reduction of XT-1 expression: 50%
  reduction of aggrecan expression: 80%

## Clc1ccc(C(c2ccc(Cl)cc2)n2cc[n+](CC(OCc3ccc(Cl)cc3Cl)c3ccc(Cl)cc3Cl)c2)cc1 (stereo not drawn) [Calmidazolium, calmidazolium]
SOX9
  reduction of Sox9 activity as indicated by luciferase expression: approximately 20%

## OCCN1CCN(CCCN2c3ccccc3Sc3ccc(C(F)(F)F)cc32)CC1 [Fluphenazine, fluphenazine]
SOX9
  luciferase reporter activity (SOX9 activity): dose dependent decrease in reporter activity

## COc1ccc2cc1Oc1ccc(cc1)C[C@H]1c3cc(c(OC)cc3CCN1C)Oc1c(OC)c(OC)cc3c1[C@H](C2)N(C)CC3 [Tetrandine, Tetrandrine]
SOX9
  reduction of Sox9 activity as indicated by luciferase expression: approximately 20%

## NCCCCCCNS(=O)(=O)c1cccc2ccccc12 [W5]
SOX9
  concentration at which the decrease in luciferase reporter activity is optimized / maximal: 50 µM
  luciferase reporter activity (SOX9 activity): does dependent decreases in reporter activity

## NCCCCCCNS(=O)(=O)c1cccc2c(Cl)cccc12 [W7]
SOX9
  concentration at which the decrease in luciferase reporter activity is optimized / maximal: 50 µM
  luciferase reporter activity (SOX9 activity): does dependent decreases in reporter activity

## CC(COc1ccccc1)N(CCCl)Cc1ccccc1 (stereo not drawn) [phenoxybenzamine]
SOX9
  reduction of Sox9 activity as indicated by luciferase expression: up to 80%
  luciferase reporter activity (SOX9 activity): dose dependent inhibition of reporter activity at 20 and 50 uM

## N.N.N.N.N.N.N.N.N.N.N.N.N.N.[Cl-].[Cl-].[Cl-].[Cl-].[Cl-].[Cl-].[O-2].[O-2].[Ru+3].[Ru+3].[Ru+4] [ruthenium red]
SOX9; 10 μM
  inhibition of SOX9 activity (luciferase assay): ~25%
SOX9
  reduction of Sox9 activity as indicated by luciferase expression: about 25%
  luciferase reporter activity (SOX9 activity): significantly reduce luciferase production
SOX9 target genes; [1]
  reduction of Col4a expression: 50%
  reduction of aggrecan expression: 40%

## Cal-TAT: SOX-CAL peptide fused to the HIV-1 Tat transduction domain, one N-/C-terminal configuration (KRPMNAFMVWAQAARRKYGRKKRRQRRR)
Collagen IV
  level of type IV collagen (Western blot): reduced level of type IV collagen
SOX9 target genes; 10 uM peptide, 48 hours
  expression of C4ST: significantly reduced
  expression of XT1: significantly reduced
SOX9 target genes; [2]
  Collagen 2A expression: significant reduction
  GFAP expression: significant reduction
  XT-1 expression: significant reduction
  aggrecan expression: significant reduction
  brevican expression: significant reduction

## RRPMNAFMVWAQAARRK [SOX-CAL peptide]
SOX9 target genes; longer treatments (1 week)
  SOX9 target genes expression: even more profound reductions

## TAT-Cal: SOX-CAL peptide fused to the HIV-1 Tat transduction domain, other N-/C-terminal configuration (YGRKKRRQRRRKRPMNAFMVWAQAARRK)
SOX9 target genes; 10 uM peptide, 48 hours
  expression of C4ST: significantly reduced
  expression of Sox9: increased
  expression of XT1: significantly reduced
